The values below come from ChEMBL document CHEMBL5247589, “Natural occurrence, bioactivity, and biosynthesis of triene-ansamycins” (Eur J Med Chem, 2022).

≈ marks a conversion by molar mass, not a printed value.

One data set relates to Pyricularia oryzae. Put plainly: Antimicrobial activity against Pyricularia oryzae by agar dilution method. Format: functional.
A short description of data set [1]: Cytotoxicity against human WI-38 cells assessed as cell growth incubated for 1 day by MTT assay. Format: toxicity, cell-based.
In data set [2] the test system is HL-60. Put plainly: Antitumor activity against human HL60 cells assessed as cell growth incubated for 1 day by MTT assay. The data set is classed as functional, cell-based. As to conditions: HL-60, 24 h.
Data set [3] concerns HL-60. Nature of the data set: Induction of apoptosis in human HL-60 cells assessed as effective dose. The data set is classed as functional. To be noted: read-out: ED50 (the source's name).
Data set [4] is described as follows: Cytotoxicity against human HAF cells incubated for 48 to 72 hrs by MTS assay. The data set is classed as toxicity, cell-based, Fibroblast. To be noted: HAF cells (fibroblasts).
The test system of another data set is HeLa. Nature of the data set: Antitumor activity against human HeLa cells incubated for 72 hrs by hemocytometer. The data set is classed as functional, cell-based.
Data set [5] can be described thus: Cytotoxicity against mouse C2C12 cells. The data set is classed as toxicity, cell-based.
A short description of data set [6]: Cytotoxicity against human HAF cells. Format: toxicity, cell-based, Fibroblast. To be noted: HAF cells (fibroblasts).
The subject of another data set is BV-2. Nature of the data set: Cytotoxicity against LPS stimulated mouse BV-2 cells by MTS assay. Format: functional, cell-based.
Data set [7] is described as follows: Cytotoxicity against human HaCaT cells. The data set is classed as toxicity, cell-based.
Data set [8] in a line: Cytotoxicity against mouse C2C12 cells incubated for 48 to 72 hrs by MTS assay. The data set is classed as toxicity, cell-based.
A further data set has as its system PANC-1. Nature of the data set: Antitumor activity against human PANC-1. To be noted: pooled result: one value given for 3 cell lines, strains, targets or settings. The data set is classed as functional, cell-based.
Another data set relates to PLC. Put plainly: Antitumor activity against human PLC cells incubated for 72 hrs by hemocytometer. The data set is classed as functional, cell-based.
Data set [9] can be described thus: Cytotoxicity against human HaCaT cells incubated for 48 to 72 hrs by MTS assay. The data set is classed as toxicity, cell-based.
Data set [10] can be described thus: Inhibition of NO production in LPS stimulated mouse BV-2 cells measured after 24 hrs. Format: functional, cell-based. As to conditions: BV-2, 24 h.

Consider `CO[C@H]1/C=C/C=C/C=C/C[C@H](OC(=O)C2(NC(=O)C3=CCCCC3)CC2)[C@H](C)[C@@H](O)/C(C)=C\CCc2cc(O)cc(c2O)NC(=O)C1`, for which, in the data set on Pyricularia oryzae, the MIC stood at 12.5 µg/mL (≈ 19.3 µM). Besides, the IC50 at 1 day in data set [1] came to 7.7 nM. For the same compound, the IC50 in the data set with HL-60 [2] was determined as 7.7 nM. Also, the EC50 in the data set on HL-60 [3] turned out to be 7700 nM.

Turning to `CO[C@H]1/C=C/C=C/C=C/C[C@H](OC(=O)[C@@H](C)NC(=O)C2CCCCC2)[C@H](C)[C@@H](O)/C(C)=C\CCc2cc(O)cc(c2)NC(=O)C1` [TRIENOMYCIN A], the IC50 in data set [4] is above 10000 nM; in the data set with HeLa it was 8 nM; in [5], 8 nM; in [6], 8 nM; in the data set with BV-2, 8 nM; in data set [7], 8 nM. The IC50 was above 10000 nM in data set [8], 8 nM in the data set on PANC-1, 8 nM in the data set with PLC and above 10000 nM in data set [9]. The compound further gave an EC50 in [10] of 25.4 nM.
